Experimental findings from ChEMBL document CHEMBL3272212, “Synthesis and antimineralocorticoid activities of some 6-substituted 7 alpha-carboalkoxy steroidal spirolactones” (1977) are described below.

Common to all, as to assay type: functional, Urine
Assay [1] concerns Rattus norvegicus. Put plainly: Inhibition of deoxycorticosterone acetate-induced urinary electrolyte effects in intragastrically dosed adrenalectomized rat assessed as increase in Na:K ratio.
Assay [2] concerns Rattus norvegicus. Put plainly: Inhibition of deoxycorticosterone acetate-induced urinary electrolyte effects in sc dosed adrenalectomized rat assessed as increase in Na:K ratio.
Assay [3] has as its system Rattus norvegicus. Put plainly: Ratio of MED for Inhibition of deoxycorticosterone acetate-induced urinary electrolyte effects in intragastrically dosed adrenalectomized rat to MED for deoxycorticosterone acetate-induced urinary electrolyte effects in sc dosed adrenalectomized rat.

The structures appear in SMILES notation.

Take `COC(=O)[C@H]1[C@@H]2[C@H](CC[C@@]3(C)[C@H]2CC[C@@]32CCC(=O)O2)[C@@]2(C)CCC(=O)C=C2[C@@H]1C`: the results for the MED in assay [1] and in assay [2] were 0.58 mg and 0.2 mg, respectively.

As to `COC(=O)[C@H]1[C@@H]2[C@H](CC[C@@]3(C)[C@H]2CC[C@@]32CCC(=O)O2)[C@@]2(C)CCC(=O)C=C2[C@@H]1Br`, the MED in assay [1] is on record as 1.05 mg; in assay [2], 0.58 mg.

For `COC(=O)[C@H]1[C@@H]2[C@H](CC[C@@]3(C)[C@H]2CC[C@@]32CCC(=O)O2)[C@@]2(C)CCC(=O)C=C2[C@H]1C`, the MED is on record as >2.4 mg in assay [1] and 0.47 mg in assay [2].

For `C=C1C2=CC(=O)CC[C@]2(C)[C@H]2CC[C@@]3(C)[C@@H](CC[C@@]34CCC(=O)O4)[C@@H]2[C@@H]1C(=O)OC`, the MED in assay [1] and in assay [2] was >2.4 mg in each case.

In the case of `CC(C)OC(=O)[C@H]1[C@@H]2[C@H](CC[C@@]3(C)[C@H]2CC[C@@]32CCC(=O)O2)[C@@]2(C)CCC(=O)C=C2[C@@H]1O`, the MED turned out to be 1.81 mg in assay [1] and 0.28 mg in assay [2]. The Ratio in assay [3] worked out at 6.

As to `COC(=O)[C@H]1[C@@H]2[C@H](CC[C@@]3(C)[C@H]2CC[C@@]32CCC(=O)O2)[C@@]2(C)CCC(=O)C=C2[C@@H]1O`, the MED is 2.12 mg in assay [1] and 0.42 mg in assay [2].

As to `[2H][C@H]1C2=CC(=O)CC[C@]2(C)[C@H]2CC[C@@]3(C)[C@@H](CC[C@@]34CCC(=O)O4)[C@@H]2[C@@H]1C(=O)OC`, the MED is 1 mg in assay [1] and 0.3 mg in assay [2].

Regarding `CC(=O)S[C@@H]1CC2=CC(=O)CC[C@]2(C)[C@H]2CC[C@@]3(C)[C@@H](CC[C@@]34CCC(=O)O4)[C@H]12` [SPIRONOLACTONE], the MED in assay [1] stood at 0.48 mg; in assay [2], 0.33 mg.
